Experimental data taken from EP0089143A1, “Diagnosis of kidney function” (AMERSHAM INTERNATIONAL plc, priority 1982, dated 1983).

Legend:
[1] = removal from the blood in a single pass through the kidney; cited from earlier work
[2] = Biodistribution and renal clearance after injection into rats (bladder activity over time, dissection at 2 hr); format: in vivo; conditions: for % in bladder of that at 2 hrs.: group value (4-8 animals)
Procedure: Solutions of complexes ^*1 and ^*2 from Example 1 were injected into rats and the biodistribution pattern noted. The results of these experiments in rats are summarised in Table 1 below, comparing the data on ^*1 and ^*2 with earlier data on TDG-Tc-99m, Hippuran -1-131 and DTPA-Tc-99m under identical conditions. In all cases, data from animal experiments was used only when the renal performance appeared "normal", i.e. no unilateral or bilateral renal retention. Data was also rejected in cases of significant retention of activity at the injection site.
The solution was filtered through a 0.22 micron membrane filter prior to administration to rats.
The solution was filtered through a 0.22 micron membrane filter prior to adminstration to rats.
A sealed nitrogen filled vial, containing the freeze dried formulation of 20mg TDG, 0.15 mg SnF2, 1 mg NaF and 0.5 mg sodium nitrate was treated with 2 ml of eluate from a technetium generator (6mCi/ml). The vial was allowed to stand at ambient temperature for 10 minutes, then heated in a boiling water bath for 15 minutes.

[3] = dissection at 2 hr, group value

Structure (SMILES): O=C(O)CNC(=O)c1ccccc1[131I] [Hippuran-I-131, sodium iodo- hippurate, reference compound]
- removed in a single pass [1]: About 80%
- hepatobiliary excretion [2]: some hepatobiliary excretion
- Dissection at 2 hr; % of injected dose: Bladder [2, 3]: 93.0 % of injected dose
- Dissection at 2 hr; % of injected dose: Kidneys [2, 3]: 0.2 % of injected dose
- Dissection at 2 hr; % of injected dose: Liver [2, 3]: 0.2 % of injected dose
- % in bladder of that at 2 hrs. ([2]; time 5 min): 33.4%
- % in bladder of that at 2 hrs. ([2]; time 10 min): 53.8%
- % in bladder of that at 2 hrs. ([2]; time 15 min): 63.9%
- % in bladder of that at 2 hrs. ([2]; time 20 min): 72.4%
- % in bladder of that at 2 hrs. ([2]; time 25 min): 80.5%
- % in bladder of that at 2 hrs. ([2]; time 30 min): 85.0%
- % in bladder of that at 2 hrs. ([2]; time 60 min): 93.0%
